Among the data in ChEMBL document CHEMBL3603734, “Design and biological evaluation of novel quinolone-based metronidazole derivatives as potent Cu(2+) mediated DNA-targeting antibacterial agents” (Bioorg Med Chem Lett, 2015) are MIC and pKa values, retold here.

For one data set, the system named is Candida albicans. The data set can be described thus: Antifungal activity against Candida albicans ATCC 10231 after 24 hrs by microbroth dilution method. The format is functional. The conditions noted are these: ATCC 10231, 24 h. A general note: In broth dilution the organism is exposed to a series of concentrations in liquid medium.
Data set [1] deals with Staphylococcus aureus. The data set can be described thus: Antibacterial activity against methicillin-resistant Staphylococcus aureus N315 after 24 hrs by microbroth dilution method. The format is functional. As to conditions: N315, 24 h.
The next data set concerns Escherichia coli. The data set can be described thus: Antibacterial activity against Escherichia coli JM109 after 24 hrs by microbroth dilution method. In kind it is functional. The conditions noted are these: JM109, 24 h.
The next data set deals with Bacillus. The experiment in a line: Antibacterial activity against Bacillus proteus ATCC 13315 after 24 hrs by microbroth dilution method. The format is functional. As to conditions: ATCC 13315, 24 h.
For a further data set, the system named is Aspergillus flavus. The experiment in a line: Antifungal activity against Aspergillus flavus ATCC 204304 after 24 hrs by microbroth dilution method. The format is functional. As to conditions: ATCC 204304, 24 h.
The test system of the next data set is Saccharomyces cerevisiae. The data set can be described thus: Antifungal activity against Saccharomyces cerevisiae ATCC 9763 after 24 hrs by microbroth dilution method. The conditions noted are these: ATCC 9763, 24 h. The format is functional.
The subject of another data set is Bacillus spizizenii. The experiment in a line: Antibacterial activity against Bacillus subtilis ATCC 6633 after 24 hrs by microbroth dilution method. The format is functional. The conditions noted are these: ATCC 6633, 24 h.
In a further data set the test system is Pichia norvegensis. The experiment in a line: Antifungal activity against Candida mycoderma ATCC 9888 after 24 hrs by microbroth dilution method. The format is functional. The conditions noted are these: ATCC 9888, 24 h.
In data set [2] the test system is Staphylococcus aureus. The experiment in a line: Antibacterial activity against Staphylococcus aureus ATCC 25923 after 24 hrs by microbroth dilution method. The format is functional. As to conditions: ATCC 25923, 24 h.
For another data set, the system named is Salmonella enterica. The experiment in a line: Antibacterial activity against Salmonella enterica ATCC 14028 after 24 hrs by microbroth dilution method. In kind it is functional. As to conditions: ATCC 14028, 24 h.
Data set [3] can be described thus: Ionization constant, pKa of the compound by UV spectroscopic analysis. In kind it is physicochemical.
In the next data set the test system is Pseudomonas aeruginosa. The experiment in a line: Antibacterial activity against Pseudomonas aeruginosa ATCC 27853 after 24 hrs by microbroth dilution method. In kind it is functional. The conditions noted are these: ATCC 27853, 24 h.
The subject of a further data set is Micrococcus luteus. The data set can be described thus: Antibacterial activity against Micrococcus luteus ATCC 4698 after 24 hrs by microbroth dilution method. In kind it is functional. The conditions noted are these: NCTC 2665, 24 h.
In a further data set the test system is Cyberlindnera jadinii. The data set can be described thus: Antifungal activity against Candida utilis ATCC 9950 after 24 hrs by microbroth dilution method. In kind it is functional. The conditions noted are these: Williopsis jadinii, ATCC 9950, 24 h.

≈ marks a conversion by molar mass, not a printed value.

By MIC is commonly meant the lowest concentration found to suppress growth. A higher MIC goes with weaker potency. A word on the pKa: it is the pH at which an ionisable group is half protonated. For the molecule `Cc1nc(N2CCCC2)c([N+](=O)[O-])n1CC(O)CN1CCN(c2cc3c(cc2F)c(=O)c(C(=O)O)cn3C2CC2)CC1` (stereo not drawn), the MIC amounted to 64 µg/mL (≈ 110 µM) with Candida albicans; 16 µg/mL (≈ 27.4 µM) in the data set on Staphylococcus aureus [1]; 64 µg/mL (≈ 110 µM) in the data set on Escherichia coli; 32 µg/mL (≈ 54.8 µM) against Bacillus; 32 µg/mL (≈ 54.8 µM) in the data set on Aspergillus flavus; 32 µg/mL (≈ 54.8 µM) with Saccharomyces cerevisiae. For the same molecule, the MIC in the data set with Bacillus spizizenii was 16 µg/mL (≈ 27.4 µM); in the data set with Pichia norvegensis, 32 µg/mL (≈ 54.8 µM); with Staphylococcus aureus [2], 64 µg/mL (≈ 110 µM); against Salmonella enterica, 32 µg/mL (≈ 54.8 µM); in the data set on Pseudomonas aeruginosa, 2 µg/mL (≈ 3.43 µM); with Micrococcus luteus, 128 µg/mL (≈ 219 µM). Moreover, in the data set on Cyberlindnera jadinii, the MIC was 16 µg/mL (≈ 27.4 µM). Also, in data set [3], the pKa turned out to be 6.72.
On to `Cc1ncc([N+](=O)[O-])n1CC(O)CN1CCN(c2cc3c(cc2F)c(=O)c(C(=O)O)cn3C2CC2)CC1` (stereo not drawn), for which the MIC with Candida albicans was 128 µg/mL (≈ 249 µM); with Staphylococcus aureus [1] it was 2 µg/mL (≈ 3.89 µM); in the data set on Escherichia coli, 16 µg/mL (≈ 31.1 µM); against Bacillus it was 4 µg/mL (≈ 7.77 µM); with Aspergillus flavus, 16 µg/mL (≈ 31.1 µM); against Saccharomyces cerevisiae, 32 µg/mL (≈ 62.2 µM). The MIC stood at 4 µg/mL (≈ 7.77 µM) against Bacillus spizizenii; 64 µg/mL (≈ 124 µM) in the data set on Pichia norvegensis; 16 µg/mL (≈ 31.1 µM) in the data set with Staphylococcus aureus [2]; 4 µg/mL (≈ 7.77 µM) in the data set on Salmonella enterica; 0.5 µg/mL (≈ 0.972 µM) in the data set with Pseudomonas aeruginosa; 8 µg/mL (≈ 15.5 µM) in the data set on Micrococcus luteus. In the data set with Cyberlindnera jadinii, this molecule returned an MIC of 32 µg/mL (≈ 62.2 µM). The molecule also came in with a pKa in data set [3] of 6.67.
